Reference: ChEMBL document CHEMBL1201862, “PubChem BioAssay data set” (2004)
Values belong to the compound of their own block, whether it stands above or below them. Activity calls are given as the source filed them. Unless noted, the rule behind the calls is not given here.

Legend:
[1] = Trypanosoma cruzi growth suppression in host cells – NIH3T3 host cells, beta-gal luminescence, confirmation (AID 2044); format: functional, cell-based;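 also: intracellular parasites grown in NIH/3T3 mouse fibroblasts as host cells; luminescent beta-galactosidase reporter signal from transgenic T. cruzi replicating inside host cells; inhibitors lower the luminescence signal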
[2] = NIH3T3 cell viability loss – ATP luminescence, mouse fibroblasts, counter-screen, dose response (AID 2010); format: functional, cell-based;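 also: cells exposed to compound for about 90 hours before reading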
[3] = molecular target: T1, Voltage-dependent T-type calcium channel subunit alpha-1H (Homo sapiens, UniProt O95180); format: functional
T1 sequence (O95180 whole entry): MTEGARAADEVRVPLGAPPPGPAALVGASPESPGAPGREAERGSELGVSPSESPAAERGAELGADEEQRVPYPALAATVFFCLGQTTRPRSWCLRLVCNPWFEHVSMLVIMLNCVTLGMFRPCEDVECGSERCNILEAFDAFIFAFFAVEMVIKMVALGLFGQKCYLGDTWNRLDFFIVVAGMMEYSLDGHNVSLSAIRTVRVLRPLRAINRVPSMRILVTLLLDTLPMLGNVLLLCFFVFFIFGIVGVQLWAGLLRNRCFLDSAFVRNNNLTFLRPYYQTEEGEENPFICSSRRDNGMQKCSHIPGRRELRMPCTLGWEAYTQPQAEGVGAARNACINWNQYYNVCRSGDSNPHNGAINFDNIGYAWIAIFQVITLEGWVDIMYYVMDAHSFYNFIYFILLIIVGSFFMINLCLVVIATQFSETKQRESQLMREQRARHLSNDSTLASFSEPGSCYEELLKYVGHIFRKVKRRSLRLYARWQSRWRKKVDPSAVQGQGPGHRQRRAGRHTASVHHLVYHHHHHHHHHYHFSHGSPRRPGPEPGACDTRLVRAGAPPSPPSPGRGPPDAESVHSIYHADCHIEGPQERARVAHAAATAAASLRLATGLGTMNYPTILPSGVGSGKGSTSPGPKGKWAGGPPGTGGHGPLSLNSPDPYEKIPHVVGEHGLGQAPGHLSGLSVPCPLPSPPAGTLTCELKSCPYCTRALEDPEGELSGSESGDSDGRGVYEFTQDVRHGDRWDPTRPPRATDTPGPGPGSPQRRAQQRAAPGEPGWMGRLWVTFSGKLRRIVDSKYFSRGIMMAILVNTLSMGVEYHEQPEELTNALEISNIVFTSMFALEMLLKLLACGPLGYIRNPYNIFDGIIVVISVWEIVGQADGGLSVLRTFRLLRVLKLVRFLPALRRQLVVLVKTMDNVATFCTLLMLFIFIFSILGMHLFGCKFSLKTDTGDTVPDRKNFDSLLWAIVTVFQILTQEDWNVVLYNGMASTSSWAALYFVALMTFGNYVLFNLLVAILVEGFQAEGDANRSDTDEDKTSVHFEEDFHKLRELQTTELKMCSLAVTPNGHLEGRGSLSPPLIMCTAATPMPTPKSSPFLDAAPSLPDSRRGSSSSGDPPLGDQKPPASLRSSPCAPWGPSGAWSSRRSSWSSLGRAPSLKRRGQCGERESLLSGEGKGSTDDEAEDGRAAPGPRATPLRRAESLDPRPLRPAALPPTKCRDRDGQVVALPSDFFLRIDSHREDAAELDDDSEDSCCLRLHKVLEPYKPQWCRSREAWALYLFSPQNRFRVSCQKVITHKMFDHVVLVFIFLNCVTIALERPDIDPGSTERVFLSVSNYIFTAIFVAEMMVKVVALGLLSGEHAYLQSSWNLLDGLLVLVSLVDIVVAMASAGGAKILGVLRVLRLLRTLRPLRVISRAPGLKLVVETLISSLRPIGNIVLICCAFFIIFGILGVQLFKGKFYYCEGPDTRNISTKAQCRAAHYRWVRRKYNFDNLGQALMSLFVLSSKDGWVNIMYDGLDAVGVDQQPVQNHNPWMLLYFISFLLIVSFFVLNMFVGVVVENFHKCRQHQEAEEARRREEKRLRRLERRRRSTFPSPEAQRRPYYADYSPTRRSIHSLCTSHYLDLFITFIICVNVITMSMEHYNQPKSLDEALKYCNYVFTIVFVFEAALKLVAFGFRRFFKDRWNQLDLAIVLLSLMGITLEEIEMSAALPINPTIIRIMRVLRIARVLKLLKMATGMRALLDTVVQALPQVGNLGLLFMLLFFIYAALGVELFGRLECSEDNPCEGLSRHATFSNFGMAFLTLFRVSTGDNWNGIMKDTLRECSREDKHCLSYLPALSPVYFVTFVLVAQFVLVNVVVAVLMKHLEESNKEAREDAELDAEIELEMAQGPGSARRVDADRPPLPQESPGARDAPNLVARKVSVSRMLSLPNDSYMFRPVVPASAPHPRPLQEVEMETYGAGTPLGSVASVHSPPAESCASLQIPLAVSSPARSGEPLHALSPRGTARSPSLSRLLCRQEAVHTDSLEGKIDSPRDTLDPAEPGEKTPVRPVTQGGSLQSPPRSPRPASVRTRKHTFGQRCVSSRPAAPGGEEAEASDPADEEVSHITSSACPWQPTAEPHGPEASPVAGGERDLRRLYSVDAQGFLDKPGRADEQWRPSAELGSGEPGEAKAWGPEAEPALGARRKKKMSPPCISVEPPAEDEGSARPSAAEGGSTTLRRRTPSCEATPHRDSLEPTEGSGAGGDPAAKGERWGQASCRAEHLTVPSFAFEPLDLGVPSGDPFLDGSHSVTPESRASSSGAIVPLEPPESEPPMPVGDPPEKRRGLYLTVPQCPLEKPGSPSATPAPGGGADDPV

[4] = molecular target: T1, Voltage-dependent T-type calcium channel subunit alpha-1H; experiment: Inhibitors of T-Type Calcium Channels. [Related pubchem assays (depositor defined):AID449739, AID463087, AID489005, AID493041, AID504579, AID504584, AID504619, AID504628]; format: functional
[5] = Counterscreen for IDE inhibitors: Luminescence-based cell-based high throughput dose response assay to identify compounds that are cytotoxic to HEK cells. [Related pubchem assays: 434962 (Primary screen (IDE inhibitors in singlicate)), 449730 (Counterscreen (Cytotoxicity in triplicate)), 435028 (Confirmation (IDE inhibitors in triplicate)) …; format: functional; details: HEK293
Insulin-degrading enzyme = molecular target: T2, Insulin-degrading enzyme (Homo sapiens, UniProt P14735); experiment: Dose Response: Fluorescence polarization-based cell-based high throughput dose response assay for inhibitors of insulin-degrading enzyme (IDE). [Related pubchem assays: 434962 (Primary screen (IDE inhibitors in singlicate)), 449730 (Counterscreen (Cytotoxicity in triplicate)), 435028 (Confirmation (IDE inhibitors in triplicate)), 434984 (Summary …; format: functional
T2 sequence (P14735 whole entry): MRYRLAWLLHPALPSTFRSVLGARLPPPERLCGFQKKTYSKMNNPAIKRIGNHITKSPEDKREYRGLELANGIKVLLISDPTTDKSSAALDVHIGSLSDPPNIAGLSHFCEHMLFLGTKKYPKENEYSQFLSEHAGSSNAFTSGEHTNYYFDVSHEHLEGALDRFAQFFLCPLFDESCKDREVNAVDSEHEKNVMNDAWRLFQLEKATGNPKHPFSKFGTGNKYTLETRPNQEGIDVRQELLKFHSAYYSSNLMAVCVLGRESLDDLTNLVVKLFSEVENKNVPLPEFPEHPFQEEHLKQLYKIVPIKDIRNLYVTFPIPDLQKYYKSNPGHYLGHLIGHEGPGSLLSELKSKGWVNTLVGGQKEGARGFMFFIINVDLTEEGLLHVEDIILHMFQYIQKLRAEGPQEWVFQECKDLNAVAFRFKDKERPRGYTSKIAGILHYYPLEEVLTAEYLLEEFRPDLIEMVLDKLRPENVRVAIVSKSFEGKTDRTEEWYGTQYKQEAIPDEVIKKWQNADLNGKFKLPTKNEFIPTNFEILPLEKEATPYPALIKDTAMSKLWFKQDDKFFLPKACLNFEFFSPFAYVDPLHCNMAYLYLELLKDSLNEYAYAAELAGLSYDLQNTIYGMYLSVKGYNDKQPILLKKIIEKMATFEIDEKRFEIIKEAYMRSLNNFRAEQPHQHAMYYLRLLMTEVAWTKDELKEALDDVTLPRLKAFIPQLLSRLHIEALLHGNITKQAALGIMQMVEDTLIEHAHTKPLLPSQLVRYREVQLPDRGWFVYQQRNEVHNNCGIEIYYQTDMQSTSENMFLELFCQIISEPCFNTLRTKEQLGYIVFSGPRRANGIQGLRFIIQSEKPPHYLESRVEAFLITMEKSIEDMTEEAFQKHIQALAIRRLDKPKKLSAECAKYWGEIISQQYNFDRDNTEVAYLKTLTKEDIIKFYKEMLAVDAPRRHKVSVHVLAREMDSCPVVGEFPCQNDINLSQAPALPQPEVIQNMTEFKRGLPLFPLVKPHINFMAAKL

Caspase-3 = molecular target: T3, Caspase-3 (Homo sapiens, UniProt P42574); experiment: activators of human procaspase-3 D3A mutant – biochemical, absorbance, PC-3 D3A mutant, counter-screen for dual procaspase-3/7 activator project, dose response (AID 504328)
T3 sequence (P42574 whole entry): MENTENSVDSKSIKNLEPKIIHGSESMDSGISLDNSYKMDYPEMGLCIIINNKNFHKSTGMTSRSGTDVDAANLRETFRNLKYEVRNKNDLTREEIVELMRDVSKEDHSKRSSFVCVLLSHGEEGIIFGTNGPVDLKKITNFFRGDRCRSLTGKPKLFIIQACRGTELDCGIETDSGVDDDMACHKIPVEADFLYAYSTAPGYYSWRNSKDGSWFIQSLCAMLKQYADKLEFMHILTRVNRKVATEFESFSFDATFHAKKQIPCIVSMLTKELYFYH

Caspase-7 = Caspase-7 (Homo sapiens, UniProt P55210); experiment: potency of procaspase-7 enzyme activation – biochemical, absorbance, human, dual procaspase-3/-7 activator project, dose response (AID 504330)
[6] = molecular target: T4, Corticotropin-releasing factor receptor 2/Corticotropin-releasing factor-binding protein (Homo sapiens, UniProt P24387+Q13324); experiment: activators of CRF receptor 2 with binding protein – uHTS hits, confirmation (AID 602473); format: functional; details: read-out: EC50_Mean
T4 sequence (Q13324 whole entry): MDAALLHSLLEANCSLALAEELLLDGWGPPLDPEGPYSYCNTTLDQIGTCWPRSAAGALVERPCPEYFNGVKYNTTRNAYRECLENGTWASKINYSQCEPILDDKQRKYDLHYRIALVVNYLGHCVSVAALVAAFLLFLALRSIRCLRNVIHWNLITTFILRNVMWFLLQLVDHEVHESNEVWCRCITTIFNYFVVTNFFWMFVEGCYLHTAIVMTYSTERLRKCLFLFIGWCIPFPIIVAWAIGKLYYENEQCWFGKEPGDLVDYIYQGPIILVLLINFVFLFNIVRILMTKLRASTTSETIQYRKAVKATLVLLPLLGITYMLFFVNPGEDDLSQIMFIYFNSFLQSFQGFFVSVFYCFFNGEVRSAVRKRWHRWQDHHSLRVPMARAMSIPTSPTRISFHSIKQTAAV
T4 sequence (P24387 whole entry): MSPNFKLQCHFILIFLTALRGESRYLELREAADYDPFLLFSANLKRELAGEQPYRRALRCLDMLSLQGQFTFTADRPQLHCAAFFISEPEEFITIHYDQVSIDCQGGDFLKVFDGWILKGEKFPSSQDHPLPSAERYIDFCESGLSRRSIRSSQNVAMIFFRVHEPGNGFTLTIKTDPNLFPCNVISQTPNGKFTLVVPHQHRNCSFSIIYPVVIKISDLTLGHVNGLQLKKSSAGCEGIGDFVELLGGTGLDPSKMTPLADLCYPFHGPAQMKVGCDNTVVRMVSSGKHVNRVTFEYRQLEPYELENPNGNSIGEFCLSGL

SUMO E1/E2 = SUMO E1/E2 (Homo sapiens, UniProt P63279+Q9UBE0+Q9UBT2); experiment: SAR analysis of SUMOylation using HTRF in an in-Vitro dose response assay. [Related pubchem assays (depositor defined):AID2006, AID2011, AID2018, AID2069, AID2658]; format: functional
SUMO E1/E2, sequence (Q9UBE0 whole entry): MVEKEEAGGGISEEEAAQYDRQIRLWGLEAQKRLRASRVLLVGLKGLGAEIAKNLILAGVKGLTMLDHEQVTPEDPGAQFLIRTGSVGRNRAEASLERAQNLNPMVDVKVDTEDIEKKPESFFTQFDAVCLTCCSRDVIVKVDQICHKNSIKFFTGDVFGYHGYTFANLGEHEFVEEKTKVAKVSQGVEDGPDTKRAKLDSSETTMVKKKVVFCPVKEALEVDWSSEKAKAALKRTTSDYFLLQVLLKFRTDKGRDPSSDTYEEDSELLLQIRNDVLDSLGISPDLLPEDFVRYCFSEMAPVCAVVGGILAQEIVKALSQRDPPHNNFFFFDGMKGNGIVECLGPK
SUMO E1/E2, sequence (Q9UBT2 whole entry): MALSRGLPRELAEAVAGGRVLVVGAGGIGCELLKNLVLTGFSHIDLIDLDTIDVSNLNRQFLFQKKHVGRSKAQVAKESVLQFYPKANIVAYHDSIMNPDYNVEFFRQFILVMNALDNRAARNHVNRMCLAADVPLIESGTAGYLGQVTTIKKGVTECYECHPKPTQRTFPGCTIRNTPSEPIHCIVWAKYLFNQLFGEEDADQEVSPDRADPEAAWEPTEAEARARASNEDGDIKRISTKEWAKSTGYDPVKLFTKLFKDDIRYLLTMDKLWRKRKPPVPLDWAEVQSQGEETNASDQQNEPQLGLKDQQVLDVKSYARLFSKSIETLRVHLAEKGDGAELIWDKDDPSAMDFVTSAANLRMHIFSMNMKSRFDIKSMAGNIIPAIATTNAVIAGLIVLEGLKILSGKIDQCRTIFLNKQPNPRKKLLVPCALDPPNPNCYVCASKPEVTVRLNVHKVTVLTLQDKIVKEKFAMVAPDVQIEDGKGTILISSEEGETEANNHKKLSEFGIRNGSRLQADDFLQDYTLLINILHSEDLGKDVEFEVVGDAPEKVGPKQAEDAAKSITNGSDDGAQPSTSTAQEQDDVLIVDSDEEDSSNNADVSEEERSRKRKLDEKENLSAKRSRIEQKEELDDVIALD
SUMO E1/E2, sequence (P63279 whole entry): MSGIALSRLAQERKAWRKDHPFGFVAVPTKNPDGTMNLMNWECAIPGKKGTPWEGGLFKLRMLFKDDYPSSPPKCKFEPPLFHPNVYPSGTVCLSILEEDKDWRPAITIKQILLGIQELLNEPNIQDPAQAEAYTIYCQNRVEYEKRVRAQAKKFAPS

[7] = molecular target: T5, Voltage-gated N-type calcium channel alpha-1B subunit/Amyloid beta A4 precursor protein-binding family A member 1 (Homo sapiens, UniProt Q00975+Q02410); experiment: disruptors of Mint-PDZ/N-type channel peptide interaction – biochemical, HTRF, set 2, SAR follow-up (AID 434980); format: functional
[8] = molecular target: T5, Voltage-gated N-type calcium channel alpha-1B subunit/Amyloid beta A4 precursor protein-binding family A member 1; experiment: disruptors of Mint-PDZ/N-type channel peptide interaction – biochemical, HTRF, SAR follow-up (AID 2489); format: functional
Neutrophil collagenase = Neutrophil collagenase (Homo sapiens, UniProt P22894); experiment: potency against MMP13, MMP2, MMP3, MMP14 – biochemical, probe development, late stage results, selectivity assay for MMP13 inhibitor project, late-stage follow-up, panel member MMP-8 [IC50 Assay] (AID 2067)
Neutrophil collagenase, sequence (P22894 whole entry): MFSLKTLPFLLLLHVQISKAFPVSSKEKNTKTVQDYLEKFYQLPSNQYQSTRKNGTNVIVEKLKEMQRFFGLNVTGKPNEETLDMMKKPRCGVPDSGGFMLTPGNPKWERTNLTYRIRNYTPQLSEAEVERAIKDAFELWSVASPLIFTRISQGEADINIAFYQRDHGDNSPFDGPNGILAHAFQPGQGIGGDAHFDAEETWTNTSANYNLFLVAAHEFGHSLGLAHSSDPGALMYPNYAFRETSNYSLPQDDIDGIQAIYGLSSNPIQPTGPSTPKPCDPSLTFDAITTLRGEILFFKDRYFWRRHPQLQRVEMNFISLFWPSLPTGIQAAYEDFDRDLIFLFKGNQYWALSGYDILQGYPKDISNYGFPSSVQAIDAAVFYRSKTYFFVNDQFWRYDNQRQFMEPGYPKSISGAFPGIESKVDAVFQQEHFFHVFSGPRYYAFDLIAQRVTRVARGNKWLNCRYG

Collagenase 3 = Collagenase 3 (Homo sapiens, UniProt P45452); experiment: potency against MMP13, MMP2, MMP3, MMP14 – biochemical, probe development, late stage results, selectivity assay for MMP13 inhibitor project, late-stage follow-up, panel member MMP-13 [IC50 Assay] (AID 2067)
[9] = molecular target: T6, Mannose-6-phosphate isomerase (Homo sapiens, UniProt P34949); experiment: phosphomannose isomerase inhibition – biochemical, fluorescence intensity, confirmation (AID 1535)
T6 sequence (P34949 whole entry): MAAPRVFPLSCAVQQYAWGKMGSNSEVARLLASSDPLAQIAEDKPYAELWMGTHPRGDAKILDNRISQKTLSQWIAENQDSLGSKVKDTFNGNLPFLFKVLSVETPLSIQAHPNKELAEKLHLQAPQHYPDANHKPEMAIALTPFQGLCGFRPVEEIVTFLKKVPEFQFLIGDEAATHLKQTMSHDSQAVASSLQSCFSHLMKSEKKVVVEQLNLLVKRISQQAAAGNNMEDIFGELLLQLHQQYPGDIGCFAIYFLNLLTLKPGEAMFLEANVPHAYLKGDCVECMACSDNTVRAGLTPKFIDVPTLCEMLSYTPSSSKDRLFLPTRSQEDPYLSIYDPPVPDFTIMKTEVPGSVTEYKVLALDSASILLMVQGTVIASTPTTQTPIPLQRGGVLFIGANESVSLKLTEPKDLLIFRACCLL

Phosphomannomutase 2 = Phosphomannomutase 2 (Homo sapiens, UniProt O15305); experiment: Counter screen SAR assay for PMM2 inhibitors via a fluorescence intensity assay. [Related pubchem assays (depositor defined):AID1545, AID1574]
Phosphomannomutase 2, sequence (O15305 whole entry): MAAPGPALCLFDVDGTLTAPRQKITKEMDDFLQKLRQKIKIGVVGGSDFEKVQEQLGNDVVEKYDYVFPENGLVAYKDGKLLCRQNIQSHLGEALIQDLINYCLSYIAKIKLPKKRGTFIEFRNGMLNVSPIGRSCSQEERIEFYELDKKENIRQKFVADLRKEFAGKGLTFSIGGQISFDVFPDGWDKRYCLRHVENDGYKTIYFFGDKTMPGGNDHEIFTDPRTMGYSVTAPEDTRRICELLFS

[10] = molecular target: Phosphoethanolamine/phosphocholine phosphatase (Homo sapiens, UniProt Q8TCT1); experiment: SAR assay for compounds that inhibit PHOSPHO1. [Related pubchem assays (depositor defined):AID1545, AID1565, AID1574]
Phosphoethanolamine/phosphocholine phosphatase, sequence (Q8TCT1 whole entry): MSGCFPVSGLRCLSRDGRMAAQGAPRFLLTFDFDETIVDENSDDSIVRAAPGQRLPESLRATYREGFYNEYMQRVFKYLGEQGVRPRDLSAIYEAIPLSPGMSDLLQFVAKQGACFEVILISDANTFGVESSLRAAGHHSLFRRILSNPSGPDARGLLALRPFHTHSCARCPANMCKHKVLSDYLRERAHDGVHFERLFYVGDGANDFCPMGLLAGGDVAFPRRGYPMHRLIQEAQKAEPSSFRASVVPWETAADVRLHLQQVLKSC

SMILES: CCc1ccc(-c2nc(CN3CCCC(C(=O)NCCc4ccc(OC)c(OC)c4)C3)c(C)o2)cc1 (configuration not stated)
- EC50 [1]: 0.161 µM (active)
- EC50 [2]: > 60 µM (not active)
- EC50 [3]: 5.02 µM (active)
- EC50 [4]: 3.95 µM (active)

SMILES: O=C(C1=NN(c2ccccc2)C2C(=O)N(c3ccccc3)C(=O)C12)c1ccccc1 (configuration not stated)
- IC50 [5]: > 55.7 µM (not active)
- IC50 (Insulin-degrading enzyme): 25.5 µM (not active)
- EC50 (Caspase-3): > 85.3 µM (inactive)
- EC50 (Caspase-7): > 85.3 µM (inactive)
- EC50 [6]: 14.6 µM (active)

- IC50 (SUMO E1/E2): 2.18 µM (active)
- IC50 [7]: 8.83 µM (active)
- IC50 [8]: 21.9 µM (active)
SMILES: O=C(COC(=O)c1cc(-c2ccco2)nc2ccccc12)NC(=O)c1ccccc1

- IC50 (Neutrophil collagenase): > 39.8 µM (inactive)
- IC50 (Collagenase 3): > 39.8 µM (active)
SMILES: O=c1[nH]c(SCc2ccc(OC(F)(F)F)cc2)nc2c1CCC2

- IC50 [9]: 44.9 µM (active)
- IC50 (Phosphomannomutase 2): 3.37 µM (active)
- IC50 [10]: 0.384 µM (active)
SMILES: O=c1c2ccc(F)cc2sn1-c1cc(Cl)ccc1Cl
